Entries after “also recorded” stand apart in the source; their conditions may differ.
Experiments:
[1] = system: pulmonary arterial endothelial cells (PAECs); assay: Western blot of mitochondrial marker TOM20 as measure of mitophagy; type: cell-based, human; conditions: for Tom20 levels (mitophagy): ECs / PAEC
Text: Western blot. Cell lysates were resolved on a SDS PAGE pre-cast gel (Invitrogen) and resolved proteins were transferred on to a PVDF membrane for further detection of proteins using specific antibodies. Antibodies for SREBP1 were purchased from Santa Cruz Biotechnology (Cat #sc-365513) and Novus biological (Cat #NB100-2215). SCD antibody was purchased from Santa Cruz Biotechnology (Cat #sc-58420). Tom20 and LAMP1 antibodies were purchased from Cell Signaling (Cat #42406S and 15665S, respectively).
(§1) First, degradation of a mitochondrial marker (TOM20) was evaluated as a bio-chemical marker of mitophagy induction.

[2] = system: PAEC / ECs; assay: Immunofluorescence microscopy of Tom20 and lysosomal marker LAMP1 (mitophagy); type: cell-based, human; conditions: for mitophagy by immunofluorescence (Tom20/Lamp1): ECs
Text: Immunofluorescence Microscopy. Cells were fixed with 4% Formaldehyde (Electron Microscopy Sciences, #C993M24) and permeabilized in the presence of 0.1% Triton X-100 (Sigma). Full-length SREBP1 was stained using mouse monoclonal antibody from Santa Cruz Biotechnology (Cat #sc-365513). Whereas nuclear SREBP1 was detected using antibody from Novus biological (Cat #NB100-2215). […] Tom20 and LAMP1 antibodies were purchased from Cell Signaling (Cat #42406S and 15665S, respectively). Images were captured on an inverted fluorescent microscope (Leica).
as §1
Fixed cells were stained with Tom20 and Lamp1 and the fluorescence images were captured on a fluorescence microscope.

[3] = system: SREBP1; assay: Western blot of SREBP1, SCD and NCEH1 (SREBP1 activation); type: cell-based, human; conditions: for SCD (SREBP1 target) levels / SREBP1 levels (non-cleaved; decrease indicates cleavage and activation): ECs / PAEC; for SCD (SREBP1 target) levels / SREBP1 levels (non-cleaved; decrease indicates cleavage and activation) / NCEH1 levels: western blot
Text: Western blot. Cell lysates were resolved on a SDS PAGE pre-cast gel (Invitrogen) and resolved proteins were transferred on to a PVDF membrane for further detection of proteins using specific antibodies. Antibodies for SREBP1 were purchased from Santa Cruz Biotechnology (Cat #sc-365513) and Novus biological (Cat #NB100-2215). SCD antibody was purchased from Santa Cruz Biotechnology (Cat #sc-58420). Tom20 and LAMP1 antibodies were purchased from Cell Signaling (Cat #42406S and 15665S, respectively). […]

[4] = system: SREBP1; assay: Immunofluorescence of SREBP1 nuclear accumulation; type: cell-based, human; conditions: ECs, IF
Text: Immunofluorescence Microscopy. Cells were fixed with 4% Formaldehyde (Electron Microscopy Sciences, #C993M24) and permeabilized in the presence of 0.1% Triton X-100 (Sigma). Full-length SREBP1 was stained using mouse monoclonal antibody from Santa Cruz Biotechnology (Cat #sc-365513). Whereas nuclear SREBP1 was detected using antibody from Novus biological (Cat #NB100-2215). Mitophagy was confirmed by staining mitochondrial Tom20 and lysosomal marker LAMP1. Tom20 and LAMP1 antibodies were purchased from Cell Signaling (Cat #42406S and 15665S, respectively). Images were captured on an inverted fluorescent microscope (Leica).
NCEH1 knockdown experiments. NCEH1 was depleted using siRNA pool from Dharmacon or Lentiviral shRNA from Sigma. NCEH1 depletion was confirmed on a Western blot or by immunofluorescence assay.
Although pharmacological inhibition of NCEH1 promoted nuclear accumulation of SREBP1, genetic evidence further supports these observations. To this end, ECs were transfected with control or siNCEH1 siRNA and localization of SREBP1 or NCEH1 was captured on IF microscope.

[5] = target: T1, NCEH1-phosphatidylserine interactions (Homo sapiens, UniProt Q6PIU2); assay: Dot blot membrane strip assay of NCEH1 binding to phosphatidylserine; conditions: purified NCEH1 protein on lipid membrane strip, in vitro
T1 sequence (Q6PIU2 1-408): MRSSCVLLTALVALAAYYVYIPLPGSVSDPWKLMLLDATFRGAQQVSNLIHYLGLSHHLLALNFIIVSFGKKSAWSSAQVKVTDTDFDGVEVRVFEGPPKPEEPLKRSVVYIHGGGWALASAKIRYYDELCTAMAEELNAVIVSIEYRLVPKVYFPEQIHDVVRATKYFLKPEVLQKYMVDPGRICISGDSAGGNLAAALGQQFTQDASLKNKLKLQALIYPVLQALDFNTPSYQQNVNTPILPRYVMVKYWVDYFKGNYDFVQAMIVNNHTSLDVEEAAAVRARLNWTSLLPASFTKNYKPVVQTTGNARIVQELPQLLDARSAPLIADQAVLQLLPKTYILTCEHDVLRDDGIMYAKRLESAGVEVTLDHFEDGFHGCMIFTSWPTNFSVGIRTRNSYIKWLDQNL
Method: Membranes having the specified compounds were incubated with purified NCEH1 protein and the membrane was developed with NCEH1 antibody. […] ECs were treated with papuamide and cell extracts were blotted with indicated antibodies.

[6] = system: SREBP1 pathway; assay: RNA sequencing and pathway analysis of propranolol-treated ECs; type: cell-based, human; conditions: ECs treated with propranolol
Text: SREBP1 is a key transcription factor that promotes lipid synthesis upon activation. Normally, SREBP1 protein is retained in the endoplasmic reticulum by high levels of cholesterol. When the cholesterol levels drop, SREBP1 protein gets translocated to the Golgi where it is cleaved, and the transcriptional activation portion of this protein gets translocated to the nucleus. Subsequently, SREBP1 activates a transcription program of genes involved in lipid synthesis. RNAseq data was generated to study mechanisms of propranolol-mediated PAEC mitophagy induction. […] ECs were treated with propranolol and the total RNA isolated from the cells were subjected to high through-put RNA sequencing.

[7] = system: HF-PH mice; assay: High-fat diet AKR/J HF-PH mouse model; type: in vivo; conditions: 4 weeks, implanted mini osmotic pump, vs vehicle
Text: FIG. 14: Using a mouse model fed a high-fat diet, AKR/J mice develop obesity, insulin resistance, heart failure with preserved ejection fraction, and pulmonary hypertension and are designated as “HF-PH mice”.
Using a mouse model fed a high-fat diet (Research Diets, New Brunswick, NJ) for 16-20 weeks, AKR/J mice (Jackson Laboratories, Bar Harbor, ME) develop obesity, insulin resistance, heart failure with preserved ejection fraction, and pulmonary hypertension. (Meng, et al., 2017; Arwood, et al., 2019).

[8] = target: T2, SREBP1-NCEH1 complex (Homo sapiens, UniProt Q6PIU2); assay: Immunoprecipitation of endogenous SREBP1-NCEH1 complex; type: cell-based; conditions: ECs, vs vehicle
T2 construct: endogenous in cells; host or cells: cultured endothelial cells (ECs)
T2 sequence (Q6PIU2 1-408): T1 sequence (Q6PIU2 1-408)
Method: Immunoprecipitation Assay. In determining endogenous SREBP1-NCEH1 complex formation, cultured endothelial cells were treated with IP lysis buffer (Pierce Cat #87787). SREBP1 complex was captured using SREBP1 antibody from Santa Cruz Biotechnology (Cat #sc-365513) and resolved on a SDS PAGE. Complex formation with NCEH1 was detected by blotting with NCEH1 antibodies (Sigma Cat #HPA026888). To map the domain of SREBP1 that binds to NCEH1, HA tagged full-length SREBP1 or C-terminal regulatory domain alone were co-expressed along with Flag tagged NCEH1 in HEK293 cells. SREBP proteins were captured on HA antibodies (Cell Signaling) and blotted with Flag antibodies (Sigma).

[9] = system: MCT-induced PAH in rats; assay: Rat MCT (monocrotaline) model of PAH; type: in vivo
Method: Rat MCT model of PAH. SD rats were given one dose of MCT injection to induce pulmonary hypertension. […] Rats were anesthetized and RVSP recorded.
Rats were injected with MCT to develop PAH in a well-established 4 week rodent model of the disease.

[10] = system: ECs; assay: Transmission electron microscopy for mitophagy; type: cell-based, human; conditions: 10 uM propranolol, 10 uM R-propranolol or 0.1 uM JW480 for 12 hours
Method: Transmission Electron Microscopy. […] Thin sections from these fixed cell blocks were visualized on Tecnai Spirit (ThermoFisher) TEM Microscope. Images captured were analyzed.
TEM evidence. […] ECs exposed to these drugs were fixed and the images were captured on a TEM.

[11] = system: laser-induced CNV in mice; assay: Laser-induced choroidal neovascularization (CNV) mouse model; type: in vivo; conditions: 20 mg/kg for seven days
Method: The eye offers an opportune model to study vascular pathology. The laser-induced choroidal neovascularization (CNV)) mouse model is used to study pathologic exudative angiogenesis as a major contributor to age-related macular degeneration (AMD). To test the protective effects of NCEH1 blockade, CNV was induced in two groups of mice that are exposed to either vehicle or 20 mg/kg of JW480 for seven days (n=12 each). […] Cumulatively, these mice studies provide evidence for the therapeutic use of JW480 in pathological CV conditions.

[12] = system: myocardial infarction in mice; assay: Myocardial infarction (MI) mouse model, ligation of the left coronary artery; type: in vivo
Method: Ligation of the left coronary artery is a well-accepted mouse model of myocardial infarction (MI), associated with high mortality (>70% in lwk). […] Mice were treated with vehicle or 20 mg/kg JW480 (IP, n=6 males & 6 females) for five days and subjected to an MI.

[13] = donor (non-PAH control)-derived PAEC / normal control ECs

OC(CNCC(O)C1CCc2cc(F)ccc2O1)C1CCc2cc(F)ccc2O1 (stereo not drawn) [nebivolol]
Tom20 levels (mitophagy) [1]: failed to promote mitophagy

CCN(CC)CCO[C@H]1CC[C@@]2(C)C(=CC[C@@H]3[C@@H]2CC[C@]2(C)C(=O)CC[C@@H]32)C1.Cl [U18666A]
mitophagy by immunofluorescence (Tom20/Lamp1) [2]: induce mitophagy

papuamide
activation of non-canonical SREBP1 pathway ([3]; ECs, cell extracts blotted): activate a non-canonical SREBP1 pathway
nuclear translocation of SREBP1 [4]: promotes nuclear translocation of SREBP1

N#CC(C#N)=NNc1cccc(Cl)c1 [CCCP, carbonyl cyanide m-chlorophenylhydrazone]
mitophagy induction (TOM20 level) ([1]; PAH patient-derived PAEC): not observed; also recorded: failed to promote mitophagy
mitophagy induction (TOM20 level) [1, 13]: induced mitophagy; also recorded: promotes mitophagy

CC(C)NCC(O)COc1cccc2ccccc12 (racemic) [propranolol]
NCEH1-phosphatidylserine interaction [5]: disrupts NCEH1-phosphatidylserine interactions
SREBP1 transcriptional targets and transcript levels (RNA-seq) [6]: activated transcriptional targets, as well as transcript levels of SREBP1
SCD (SREBP1 target) levels [3]: increased; also recorded: elevated
SREBP1 levels (non-cleaved; decrease indicates cleavage and activation) [3]: SREBP1 levels go down; also recorded: reduce SREBP1 levels
NCEH1 levels ([3]; ECs): higher
effect on inhibitor effects of fatostatin ([3]; PAEC, propranolol with fatostatin, last lane of western blot): able to rescue inhibitor effects of fatostatin
Tom20 levels (mitophagy) [1]: decreased Tom20 levels; also recorded: robustly induced mitophagy; also recorded: TOM20 levels go down; also recorded: lower
mitophagy induction (TOM20 level) ([1]; PAH patient-derived PAEC): reduced TOM20 levels; also recorded: consistently decreased Tom20 levels in PAH patient cells much more robustly than in normal cells
mitophagy induction (TOM20 level) [1, 13]: reduced TOM20 across all cells
right ventricular systolic pressure [7]: significantly decreased
mitophagy by immunofluorescence (Tom20/Lamp1) [2]: induce mitophagy; also recorded: Tom20 was mobilized to lysosome
TOM20/Lamp1 co-staining ([2]; propranolol treated PAH patient-derived PAEC): reduced TOM20/Lamp1 co-staining
nuclear translocation of SREBP1 [4]: promoted nuclear translocation of SREBP1
full length SREBP1 immunoprecipitated ([8]; anti-SREBP1 antibody beads): less full length SREBP1 immunoprecipitated
NCEH1 complexed with full length SREBP1 ([8]; blotted with NCEH1 antibody): reduced NCEH1 complexed with full length SREBP1
right ventricle systolic pressures (RVSP) ([9]; 10 mg/kg IP for the last 2 of 4 weeks): significantly reduced
MCT-induced arterial wall thickness ([9]; 10 mg/kg IP, lung sections H&E): negated MCT-induced arterial wall thickness
mitophagy by TEM (bilipid membrane formation around mitochondria) [10]: promotes bilipid membrane formation around mitochondria more frequently than vehicle treated cells; also recorded: promoted mitophagy

COCCc1ccc(OCC(O)CNC(C)C)cc1 (stereo not drawn) [metoprolol]
Tom20 levels (mitophagy) [1]: failed to promote mitophagy

CC(C)c1ccccc1OC(=O)NCCc1ccc2ccccc2c1 [JW480]
NCEH1-phosphatidylserine interaction [5]: disrupts NCEH1-phosphatidylserine interactions
SCD (SREBP1 target) levels [3]: elevated
SREBP1 levels (non-cleaved; decrease indicates cleavage and activation) [3]: reduce SREBP1 levels
SCD (SREBP1 target) levels ([3]; listed as NCEH1): sufficient to activate SREBP1 target SCD
NCEH1 levels ([3]; ECs): higher
Tom20 levels (mitophagy) [1]: lower
Tom20 levels (mitophagy) ([1]; listed as NCEH1): reduced the levels of Tom20
mitophagy by immunofluorescence (Tom20/Lamp1) [2]: Tom20 was mobilized to lysosome
nuclear translocation of SREBP1 [4]: promoted nuclear translocation of SREBP1
pathologic CNV [11]: inhibited pathologic CNV
retinal vessel leakage [11]: significantly reduced retinal vessel leakage
intracellular lipid droplets (TEM) ([12]; JW480-treated mice): increased intracellular lipid droplets
survival after MI ([12]; mice, 20 mg/kg IP for five days before MI): significantly improved survival
mitophagy by TEM (bilipid membrane formation around mitochondria) [10]: promoted mitophagy
